Measurements as given in patent US20230072854A1, “PARAXANTHINE-BASED BIOACTIVE COMPOSITION AND METHOD OF USE THEREOF” (Ingenious Ingredients, LP, priority 2020, published 2023).

Tests used:
volunteers [1] = test: Berg-Washington Card Sorting Task Test (BCST), double blind crossover vs placebo; assay type: in vivo, human; conditions: 200 mg
From the text: (§1) In a double blind, randomized, crossover, and repeated measures manner, 13 volunteers (10 male, 3 female, average age 24±5 years, average body weight 72.91±19.30 kg, average height 169.96±11.84 cm, average BMI 24.80±3.71 kg/m^2) participated in this study. Participants limited ingestion of caffeine and other stimulants to normal use for 48-hours, fasted for 8-hours and reported to the lab and completed 4 different cognitive function tests to assess short-term attention and inhibitory control (Go-No Go Test), sustained attention (Vigilance Task Test), working memory (Sternberg Task Test) and cognitive flexibility (Berg-Washington Card Sorting Test). Once completed, the participants ingested either a placebo or 200 mg of paraxanthine (WGI, TX, USA) with 8 ounces of water. Participants repeated cognitive function tests 1, 2, 3, 4, 5, and 6 hours after ingestion of the supplement. After one-week participants repeated the experiment while consuming the other treatment.
(§2) Data were analyzed by a General Linear Model multivariate and univariate analyses with repeated measures using body weight as a covariate. Data are expressed as means±standard deviations for the placebo (PLA) and Paraxanthine (PrX). Greenhouse-Geisser univariate p-levels are listed for time (T), weight×time (W×T) and group×time (G×T) interactions effects. Pairwise comparison is indicated by the following superscripts: †=[…] difference from baseline value; *=[…] difference from baseline; a=[…] difference between groups; b=[…] difference between groups. Eta2 vaules of […] are considered small, […] medium, and >0.14 are considered large.
Berg-Washington Card Sorting Task Test is a test of basic cognitive flexibility or set-shifting between old/new rule changes. The test involves reasoning, learning, executive control and attention shifting. It is particularly sensitive to the inability to shift set. Less errors means subjects were able to both recognize and ‘shift’ to a new rule with higher ability. […]

volunteers [2] = test: Go/No-Go test, double blind crossover vs placebo; assay type: in vivo, human; conditions: 200 mg; for Response Time Average: in ms (unit assumed)
From the text: as §1, §2
A test of sustained attention and response control (i.e., attention/inhibition). Lower response times represents better ability to pay attention and inhibitory control.

[3] = Mean (SEM) over all hours, listed as PrX

## Cn1c(=O)[nH]c2ncn(C)c2c1=O [paraxanthine, 1,7-dimethylxanthine]
Volunteers [1]
  number of correct answers in BCST, in words: significantly increased
  number of errors in BCST, in words: reducing the number of errors
  perseverative errors PEBL (FIG. 3): no significant time or between treatment effects
Volunteers [1]; Mean (SEM) over all hours
  BCST Correct Response: 97.3
  BCST Errors: 18.0
  BCST Perseverative Errors (PAR rules): 8.7 ± 1.6
  BCST Perseverative Errors (PEBL): 12.7 ± 1.2
Volunteers [1]; [3]
  BCST Correct Response: 102.5 ± 3.4
  BCST Errors: 18.0 ± 3.9
Volunteers [1]; after 6 hours
  change in correct answers after 6 hours: +1.9
  change in errors after 6 hours: −0.6
Volunteers [1]; baseline-adjusted
  correct responses adjusted for differences in baseline values: 2.5
  errors adjusted for differences in baseline values: −1.5
Volunteers [1]; baseline-adjusted, vs placebo
  less errors than placebo, adjusted for differences in baseline values: 600%
  more correct responses than placebo, adjusted for differences in baseline values: 150%
Volunteers [1]; hour 0 (before ingestion)
  BCST Correct Response: 100.0 ± 6.6
  BCST Errors: 19.5 ± 6.6
  BCST Perseverative Errors (PAR rules): 10.1 ± 4.6
  BCST Perseverative Errors (PEBL): 13.7 ± 5.0
Volunteers [1]; hour 1 after ingestion
  BCST Correct Response: 101.4 ± 3.6
  BCST Errors: 18.1 ± 4.3
  BCST Perseverative Errors (PAR rules): 8.8 ± 2.1
  BCST Perseverative Errors (PEBL): 12.5 ± 3.0
Volunteers [1]; hour 2 after ingestion
  BCST Correct Response: 104.3
  BCST Errors: 16.8
  BCST Perseverative Errors (PAR rules): 7.8
  BCST Perseverative Errors (PEBL): 12.3
Volunteers [1]; hour 2 and 4 over baseline
  number of correct responses (FIG. 1): significantly (p<0.5) increased
Volunteers [1]; hour 3 after ingestion
  BCST Correct Response: 100.6 ± 5.8
  BCST Errors: 17.0 ± 3.9
  BCST Perseverative Errors (PAR rules): 8.5 ± 2.9
  BCST Perseverative Errors (PEBL): 12.3 ± 3.2
Volunteers [1]; hour 4, between groups
  number of correct responses between groups (FIG. 1): showed a trend (p<0.1) between groups
Volunteers [1]; hour 4 after ingestion
  BCST Correct Response: 106.4
  BCST Errors: 19.0
  BCST Perseverative Errors (PAR rules): 8.6
  BCST Perseverative Errors (PEBL): 13.3
Volunteers [1]; hour 5 after ingestion
  BCST Correct Response: 101.5 ± 4.0
  BCST Errors: 18.5 ± 4.2
  BCST Perseverative Errors (PAR rules): 8.8 ± 3.6
  BCST Perseverative Errors (PEBL): 13.1 ± 3.6
Volunteers [1]; hour 6, between groups
  perseverative errors PAR between groups (FIG. 4): trend (p<0.1) towards less errors between groups
Volunteers [1]; hour 6 after ingestion
  BCST Correct Response: 103.5
  BCST Errors: 16.3
  BCST Perseverative Errors (PAR rules): 8.1
  BCST Perseverative Errors (PEBL): 11.7
Volunteers [1]; hour 6 vs baseline
  errors compared to baseline (FIG. 2): trend (p<0.1) towards less error
Volunteers [1]; overall, vs placebo
  less errors than placebo, overall: 23.7%
  more correct responses than placebo, overall: 5.3%
Volunteers [2]
  Round 1 Condition P mean response time (FIG. 6): no significant differences over time or between treatments
  percentage of correct answers, in words: maintained percentage of correct answers
Volunteers [2]; Mean (SEM) over all hours
  Correct Response Mean Accuracy (%): 92.5%
  Round 1: Condition P Mean - Response Time (Millisecond): 394.55 ± 18.07 Millisecond
  Round 2: Condition P Mean - Response Time (Millisecond): 356.55 ± 18.00 Millisecond
  Round 2: Condition R Mean - Response Time (Millisecond): 396.32 ± 20.27 Millisecond
  Response Time Average: 374.94 ± 17.45
Volunteers [2]; Mean (SEM) over all hours, listed as PX
  Correct Response Mean Accuracy (%): 92.5 ± 1.3%
Volunteers [2]; acute
  response times to correctly respond compared to PLA: faster response times
Volunteers [2]; hour 0 (before ingestion)
  Correct Response Mean Accuracy (%): 93.0 ± 2.9%
  Round 1: Condition P Mean - Response Time (Millisecond): 392.29 ± 44.29 Millisecond
  Round 1: Condition R Mean - Response Time (Millisecond): 344.30 ± 70.08 Millisecond
  Round 2: Condition P Mean - Response Time (Millisecond): 345.19 ± 37.11 Millisecond
  Round 2: Condition R Mean - Response Time (Millisecond): 401.46 ± 52.36 Millisecond
  Response Time Average: 373.88 ± 43.64
Volunteers [2]; hour 1 after ingestion
  Correct Response Mean Accuracy (%): 93.7 ± 2.3%
  Round 1: Condition P Mean - Response Time (Millisecond): 387.51 ± 38.34 Millisecond
  Round 1: Condition R Mean - Response Time (Millisecond): 336.24 ± 73.85 Millisecond
  Round 2: Condition P Mean - Response Time (Millisecond): 346.39 ± 47.07 Millisecond
  Round 2: Condition R Mean - Response Time (Millisecond): 390.30 ± 41.57 Millisecond
  Response Time Average: 366.68 ± 36.59
Volunteers [2]; hour 2 after ingestion
  Correct Response Mean Accuracy (%): 92.9 ± 3.6%
  Round 1: Condition P Mean - Response Time (Millisecond): 392.71 ± 38.09 Millisecond
  Round 1: Condition R Mean - Response Time (Millisecond): 347.17 ± 59.16 Millisecond
  Round 2: Condition P Mean - Response Time (Millisecond): 352.72 ± 46.18 Millisecond
  Round 2: Condition R Mean - Response Time (Millisecond): 389.31 ± 39.82 Millisecond
  Response Time Average: 371.09 ± 30.25
Volunteers [2]; hour 3 after ingestion
  Correct Response Mean Accuracy (%): 91.7%
  Round 1: Condition P Mean - Response Time (Millisecond): 402.18 Millisecond
  Round 1: Condition R Mean - Response Time (Millisecond): 360.11 Millisecond
  Round 2: Condition P Mean - Response Time (Millisecond): 372.09 Millisecond
  Round 2: Condition R Mean - Response Time (Millisecond): 401.47 Millisecond
  Response Time Average: 384.07
Volunteers [2]; hour 4 after ingestion
  Correct Response Mean Accuracy (%): 91.3%
  Round 1: Condition P Mean - Response Time (Millisecond): 387.65 Millisecond
  Round 1: Condition R Mean - Response Time (Millisecond): 350.94 Millisecond
  Round 2: Condition P Mean - Response Time (Millisecond): 362.02 Millisecond
  Round 2: Condition R Mean - Response Time (Millisecond): 399.45 Millisecond
  Response Time Average: 375.03
Volunteers [2]; hour 5 after ingestion
  Correct Response Mean Accuracy (%): 93.1%
  Round 1: Condition P Mean - Response Time (Millisecond): 406.70 Millisecond
  Round 1: Condition R Mean - Response Time (Millisecond): 365.08 Millisecond
  Round 2: Condition P Mean - Response Time (Millisecond): 359.18 Millisecond
  Round 2: Condition R Mean - Response Time (Millisecond): 405.58 Millisecond
  Response Time Average: 383.60
Volunteers [2]; hour 6 after ingestion
  Correct Response Mean Accuracy (%): 91.6 ± 4.4%
  Round 1: Condition P Mean - Response Time (Millisecond): 393.51 ± 53.02 Millisecond
  Round 1: Condition R Mean - Response Time (Millisecond): 352.14 ± 56.48 Millisecond
  Round 2: Condition P Mean - Response Time (Millisecond): 357.05 ± 99.19 Millisecond
  Round 2: Condition R Mean - Response Time (Millisecond): 387.41 ± 53.47 Millisecond
  Response Time Average: 371.27 ± 53.76
Volunteers [2]; round 1+round 2
  average response time (FIG. 10): maintained mean response time over time
Volunteers [2]; round 1, vs PLA
  Round 1 Condition R mean response time (FIG. 7): better maintained mean response time over time compared to PLA
Volunteers [2]; round 2, vs PLA
  Round 2 Condition P mean response time (FIG. 8): better maintained mean response time over time compared to PLA
  Round 2 Condition R mean response time (FIG. 9): non-significantly better maintained mean response time over time compared to PLA
Volunteers [2]; vs baseline
  change of mean response times: −0.3%
  decrease of correct responses in comparison to baseline: 0.5%
Volunteers [2]; vs placebo
  Mean Correct Responses higher compared to placebo: 1.1%
